Experimental data as given in PubChem BioAssay AID1918995 (Molecular Pharmacology Branch, DTP, NCI, 2023).
pIC50: −log10 of the molar value.

System: 324938-238-R-J1-PDC complex spheroid growth, % test/control
Assay: Anticancer human tumor 324938-238-R-J1-PDC patient-derived bladder carcinoma cell line growth inhibition [AhR]
Settings: for pIC50: curve of first compound; for viability, T/C: stronger effect = lower value
In short: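 Agents were dosed in half-log steps down from roughly clinical Cmax, or from 10 microM where Cmax was unknown, alone and with AhR antagonists. Read-out: percent test/control growth of tumor spheroids containing HUVEC and MSC stromal cells.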

[1] = second compound 0.1 µM, first compound 0.000949 µM
[2] = second compound 0.1 µM, first compound 0.003 µM
[3] = second compound 0.1 µM, first compound 0.00949 µM
[4] = second compound 0.1 µM, first compound 0.03 µM
[5] = second compound 0.1 µM, first compound 0.0949 µM
[6] = second compound 0.1 µM, first compound 0.3 µM
[7] = second compound 0.316 µM, first compound 0.000949 µM
[8] = second compound 0.316 µM, first compound 0.003 µM
[9] = second compound 0.316 µM, first compound 0.00949 µM
[10] = second compound 0.316 µM, first compound 0.03 µM
[11] = second compound 0.316 µM, first compound 0.0949 µM
[12] = second compound 0.316 µM, first compound 0.3 µM
[13] = second compound 1 µM, first compound 0.000949 µM
[14] = second compound 1 µM, first compound 0.003 µM
[15] = second compound 1 µM, first compound 0.00949 µM
[16] = second compound 1 µM, first compound 0.03 µM
[17] = second compound 1 µM, first compound 0.0949 µM
[18] = second compound 1 µM, first compound 0.3 µM
[19] = second compound 3.16 µM, first compound 0.000949 µM
[20] = second compound 3.16 µM, first compound 0.003 µM
[21] = second compound 3.16 µM, first compound 0.00949 µM
[22] = second compound 3.16 µM, first compound 0.03 µM
[23] = second compound 3.16 µM, first compound 0.0949 µM
[24] = second compound 3.16 µM, first compound 0.3 µM
[25] = second compound 10 µM, first compound 0.000949 µM
[26] = second compound 10 µM, first compound 0.003 µM
[27] = second compound 10 µM, first compound 0.00949 µM
[28] = second compound 10 µM, first compound 0.03 µM
[29] = second compound 10 µM, first compound 0.0949 µM
[30] = second compound 10 µM, first compound 0.3 µM
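Also: spheroids exposed to agents for seven days before viability read.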

`CC(C)CC(NC(=O)C(Cc1ccccc1)NC(=O)c1cnccn1)B(O)O` (stereo not given) + Cc1ccccc1N=Nc1ccc(NC(=O)c2ccnn2C)c(C)c1 gave a pIC50 (second compound 0.1 µM) of 8.28, a pIC50 (second compound 0.316 µM) of 8.31 and a pIC50 (second compound 1 µM) of 8.32. The pIC50 (second compound 3.16 µM) was 8.36, the pIC50 (second compound 10 µM) was 8.35 and the viability, T/C [1] was 97.5%. For the same compound, the viability, T/C [2] was 94.3%, the viability, T/C [3] was 1.29% and the viability, T/C [4] was 0.07%. For the same compound, the viability, T/C [5] was 0.09%, the viability, T/C [6] was 0.27% and the viability, T/C [7] was 92.3%. It also gave a viability, T/C [8] of 84.6%, a viability, T/C [9] of 3.23% and a viability, T/C [10] of 0.04%. The viability, T/C [11] was 0.05%, the viability, T/C [12] was 0.19% and the viability, T/C [13] was 95.1%. For the same compound, the viability, T/C [14] was 84.1%, the viability, T/C [15] was 1.49% and the viability, T/C [16] was 0.04%. The viability, T/C [17] was 0.07%, the viability, T/C [18] was 0.17% and the viability, T/C [19] was 84.2%. The viability, T/C [20] was 73.4%, the viability, T/C [21] was 2.32% and the viability, T/C [22] was 0.06%. For the same compound, the viability, T/C [23] was 0.06%, the viability, T/C [24] was 0.19% and the viability, T/C [25] was 85.9%. For the same compound, the viability, T/C [26] was 76.1%, the viability, T/C [27] was 2.47% and the viability, T/C [28] was 0.24%. The viability, T/C [29] was 0.36% and the viability, T/C [30] was 0.32%.

Compound `CCc1c2c(nc3ccc(O)cc13)-c1cc3c(c(=O)n1C2)COC(=O)[C@]3(O)CC` + Cc1ccccc1N=Nc1ccc(NC(=O)c2ccnn2C)c(C)c1 has a pIC50 (second compound 0.1 µM) of 8.49, a pIC50 (second compound 0.316 µM) of 8.61 and a pIC50 (second compound 1 µM) of 8.73. For the same compound, the pIC50 (second compound 3.16 µM) was 8.90, the pIC50 (second compound 10 µM) was 8.84 and the viability, T/C [1] was 62.4%. For the same compound, the viability, T/C [2] was 52%, the viability, T/C [3] was 18.5% and the viability, T/C [4] was 15.2%. The viability, T/C [5] was 16.2%, the viability, T/C [6] was 15.5% and the viability, T/C [7] was 57.4%. It also gave a viability, T/C [8] of 48.5%, a viability, T/C [9] of 17.1% and a viability, T/C [10] of 16.4%. For the same compound, the viability, T/C [11] was 14.2%, the viability, T/C [12] was 16.1% and the viability, T/C [13] was 52.4%. For the same compound, the viability, T/C [14] was 48.4%, the viability, T/C [15] was 17.9% and the viability, T/C [16] was 12.9%. The viability, T/C [17] was 15.8%, the viability, T/C [18] was 15.1% and the viability, T/C [19] was 50.9%. It also gave a viability, T/C [20] of 47.9%, a viability, T/C [21] of 14.9% and a viability, T/C [22] of 12.8%. The viability, T/C [23] was 13.8%, the viability, T/C [24] was 15.4% and the viability, T/C [25] was 52.3%. It also gave a viability, T/C [26] of 46%, a viability, T/C [27] of 19.9% and a viability, T/C [28] of 12.9%. For the same compound, the viability, T/C [29] was 14% and the viability, T/C [30] was 16.2%.

`COc1cc(Nc2ncc3c(n2)-c2ccc(Cl)cc2C(c2c(F)cccc2OC)=NC3)ccc1C(=O)O` + Cc1ccccc1N=Nc1ccc(NC(=O)c2ccnn2C)c(C)c1 was tested, and the pIC50 (second compound 0.1 µM) was 6.86, the pIC50 (second compound 0.316 µM) was 7.00 and the pIC50 (second compound 1 µM) was 7.07. For the same compound, the pIC50 (second compound 3.16 µM) was 7.18, the pIC50 (second compound 10 µM) was 7.15 and the viability, T/C (second compound 0.1 µM, first compound 0.0316 µM) was 72.5%. The viability, T/C (second compound 0.1 µM, first compound 0.1 µM) was 55.7%, the viability, T/C (second compound 0.1 µM, first compound 0.316 µM) was 36.1% and the viability, T/C (second compound 0.1 µM, first compound 1 µM) was 31.9%. It also gave a viability, T/C (second compound 0.1 µM, first compound 3.16 µM) of 31.6%, a viability, T/C (second compound 0.1 µM, first compound 10 µM) of 39.4% and a viability, T/C (second compound 0.316 µM, first compound 0.0316 µM) of 66.7%. It also gave a viability, T/C (second compound 0.316 µM, first compound 0.1 µM) of 50.1%, a viability, T/C (second compound 0.316 µM, first compound 0.316 µM) of 32.8% and a viability, T/C (second compound 0.316 µM, first compound 1 µM) of 32.5%. For the same compound, the viability, T/C (second compound 0.316 µM, first compound 3.16 µM) was 33.8%, the viability, T/C (second compound 0.316 µM, first compound 10 µM) was 34.3% and the viability, T/C (second compound 1 µM, first compound 0.0316 µM) was 65.1%. For the same compound, the viability, T/C (second compound 1 µM, first compound 0.1 µM) was 47.6%, the viability, T/C (second compound 1 µM, first compound 0.316 µM) was 31.6% and the viability, T/C (second compound 1 µM, first compound 1 µM) was 31.2%. The viability, T/C (second compound 1 µM, first compound 3.16 µM) was 30.4%, the viability, T/C (second compound 1 µM, first compound 10 µM) was 34.8% and the viability, T/C (second compound 3.16 µM, first compound 0.0316 µM) was 57.4%. For the same compound, the viability, T/C (second compound 3.16 µM, first compound 0.1 µM) was 45.9%, the viability, T/C (second compound 3.16 µM, first compound 0.316 µM) was 27.5% and the viability, T/C (second compound 3.16 µM, first compound 1 µM) was 28.7%. For the same compound, the viability, T/C (second compound 3.16 µM, first compound 3.16 µM) was 27.5%, the viability, T/C (second compound 3.16 µM, first compound 10 µM) was 30.1% and the viability, T/C (second compound 10 µM, first compound 0.0316 µM) was 60.4%. For the same compound, the viability, T/C (second compound 10 µM, first compound 0.1 µM) was 49.1%, the viability, T/C (second compound 10 µM, first compound 0.316 µM) was 34.8% and the viability, T/C (second compound 10 µM, first compound 1 µM) was 36.9%. For the same compound, the viability, T/C (second compound 10 µM, first compound 3.16 µM) was 37% and the viability, T/C (second compound 10 µM, first compound 10 µM) was 41.7%.
